Results from patent US20190247398A1, “FORMULATIONS OF A MACROCYCLIC TRK KINASE INHIBITOR” (Array BioPharma Inc., priority 2017, published 2019).
Like-named read-outs stand apart in the source and are kept apart here.

How the values were obtained:
Format in all cases: physicochemical
[1] = Gravimetric vapor sorption (GVS)
Experimental: Approximately 10-20 mg of sample was placed into a mesh vapor sorption balance pan and loaded into an IGASorp Moisture Sorption Analyzer balance by Hiden Analytical. […] After completion of the sorption cycle, the sample was dried using the same procedure to 0% RH, and finally taken back to the starting point of 40% RH. The weight change during the sorption/desorption cycles were plotted, allowing for the hygroscopic nature of the sample to be determined.

[2] = Salt stability studies (40° C./75% RH for 1 week, XRPD)
Experimental: Recovered salts were placed in an oven at 40° C./75% RH for 1 week, and the resultant materials were analyzed by XRPD to determine any changes to form or crystallinity.

[3] = 1 week stability tests (40° C./75% RH, 80° C., ambient light; XRPD and UPLC)
Thermodynamic solubility = settings: for solubility thermodynamic at 24 h: thermodynamic from solid, ambient temperature, read-out: Concentration (thermodynamic solubility)
Experimental: Thermodynamic solubility studies were carried out as follows: 10 mg of prepared salts were suspended in pH 1, 4.5, 6.8 and un-buffered water (300 μL). The pH of the slurries was measured and adjusted accordingly using either 0.2M HCl solution or 0.2M sodium hydroxide solution. The slurries were agitated for 24 hours at ambient temperature using an incubator shaker.

[4] = Salt disproportionation studies; settings: deionized water, 24 h, ambient temperature
Experimental: Salt disproportionation studies were carried out as follows: 20 mg of prepared salts were weighed into a vial and 0.5 mL of deionized water was added. The samples were then agitated for 24 h at ambient temperature. The pH of the samples was taken pre- and post-agitation. Any solids recovered were submitted for XRPD analysis to determine any changes to form.

[5] = Hydration screen (acetone/water mixtures of various water activities); settings: ambient
Experimental: Hydration screen was carried out as follows: 10 mg of prepared salts were suspended in several acetone/water mixtures of various water activities (low: aw=0.281, medium: aw=0.776 and high: aw=0.919) and agitated at ambient temperatures for 24 hr. Any recovered solids were submitted for XRPD analysis to determine any changes to form.

[6] = Dynamic vapor sorption (DVS)
Experimental: Approximately, 10 mg of sample was placed into a mesh vapor sorption balance pan and loaded into a DVS-1 dynamic vapor sorption balance by Surface Measurement Systems. The sample was subjected to a ramping profile from 40-90% relative humidity (RH) at 10% increments, maintaining the sample at each step until a stable weight had been achieved (99.5% step completion). After completion of the sorption cycle, the sample was dried using the same procedure to 0% RH and then a second sorption cycle back to 40% RH. The weight change during the sorption/desorption cycles were plotted, allowing for the hygroscopic nature of the sample to be determined. XRPD analysis was then carried out on any solid retained.

[7] = pH 6.8 potassium phosphate buffer, aqueous buffer, pH 6.8 buffer
[8] = simulated gastric fluid, pH 1 buffer
[9] = high water activity aw=0.919, 24 hr
[10] = low water activity aw=0.281, 24 hr

CS(=O)(=O)O.C[C@@H]1CCc2ncc(F)cc2[C@H]2CCCN2c2ccn3ncc(c3n2)C(=O)N1 [Compound 1 mesylate]
RH at which the material deliquesced (GVS) ([1]; GVS humidity conditions): 30 % RH
hygroscopicity by GVS (in words) ([1]; GVS humidity conditions): high hygroscopicity
change in crystalline form after exposure to GVS conditions (post-GVS XRPD) ([1]; after GVS cycle): desolvate and become the mesylate form seen in the salt screen
mass uptake (GVS) ([1]; at 90% RH): about 32%
changes to form or crystallinity after stability conditions (XRPD) ([2]; salt recovered from acetone): no changes to crystallinity or form
changes to form or crystallinity after stability conditions (XRPD) ([2]; salt recovered from isopropanol): a slight increase in crystallinity but no changes to form
changes to form or crystallinity after stability conditions (XRPD) ([2]; salt recovered from methanol): a decrease in crystallinity but no changes to form
change in purity after 1 week stability test (UPLC) ([3]; 40° C./75% RH): no change to purity
change in purity after 1 week stability test (UPLC) ([3]; 80° C.): no change to purity
change in purity after 1 week stability test (UPLC) ([3]; ambient light): no change to purity
solubility thermodynamic at 24 h (Thermodynamic solubility; aqueous buffer, pH 4.5 buffer): 9.3 mg/mL
thermodynamic solubility (in words) (Thermodynamic solubility; pH 1): moderately soluble
solids recovered after thermodynamic solubility study (XRPD) (Thermodynamic solubility; pH 4.5): mesylate salt
thermodynamic solubility (in words) (Thermodynamic solubility; pH 4.5): moderately soluble
solids recovered after thermodynamic solubility study (XRPD) (Thermodynamic solubility; pH 6.8): free base
thermodynamic solubility (in words) (Thermodynamic solubility; pH 6.8): low solubility
solubility thermodynamic at 24 h (Thermodynamic solubility; [7]): 1.5 mg/mL
solubility thermodynamic at 24 h (Thermodynamic solubility; [8]): 14.3 mg/mL
solubility thermodynamic at 24 h (Thermodynamic solubility; un-buffered water): 9.6 mg/mL
solids recovered after thermodynamic solubility study (XRPD) (Thermodynamic solubility; un-buffered water): free base
thermodynamic solubility (in words) (Thermodynamic solubility; un-buffered water): moderately soluble
material recovered after salt disproportionation study (XRPD) [4]: no change to form by XRPD analysis but crystallinity reduced
solid recovered from hydration screen (XRPD) [5, 9]: free base
solid recovered from hydration screen (XRPD) [5, 10]: a mixture of free base and salt
solid recovered from hydration screen (XRPD) ([5]; medium water activity aw=0.776, 24 hr): mesylate salt

C[C@@H]1CCc2ncc(F)cc2[C@H]2CCCN2c2ccn3ncc(c3n2)C(=O)N1.O=S(=O)(O)c1ccccc1 [Compound 1 besylate]
hygroscopicity by DVS (in words) ([6]; DVS humidity conditions): low hygroscopicity
change in crystalline form after exposure to DVS conditions (post-DVS XRPD) ([6]; after DVS cycle): no changes in crystalline form
mass uptake (DVS) ([6]; at 90% RH): about 0.7%
changes to form or crystallinity after stability conditions (XRPD) ([2]; salt recovered from TBME): preferred orientation but no changes to form
changes to form or crystallinity after stability conditions (XRPD) ([2]; salt recovered from THF): an increase to crystallinity but no changes to form
changes to form or crystallinity after stability conditions (XRPD) ([2]; salt recovered from ethanol): a decrease in crystallinity
change to form after 1 week stability test (XRPD) ([3]; 40° C./75% RH): a mixture of besylate salt and something else
change in purity after 1 week stability test (UPLC) ([3]; 80° C.): no change to purity
change to form after 1 week stability test (XRPD) ([3]; 80° C.): no change to form
change in purity after 1 week stability test (UPLC) ([3]; ambient light): no change to purity
change to form after 1 week stability test (XRPD) ([3]; ambient light): no change to form
solubility thermodynamic at 24 h (Thermodynamic solubility; aqueous buffer, pH 4.5 buffer): 12.7 mg/mL
thermodynamic solubility (in words) (Thermodynamic solubility; pH 1): highly soluble
solids recovered after thermodynamic solubility study (XRPD) (Thermodynamic solubility; pH 4.5): an unknown form
thermodynamic solubility (in words) (Thermodynamic solubility; pH 4.5): moderately soluble
solids recovered after thermodynamic solubility study (XRPD) (Thermodynamic solubility; pH 6.8): poorly crystalline free base
thermodynamic solubility (in words) (Thermodynamic solubility; pH 6.8): low solubility
solubility thermodynamic at 24 h (Thermodynamic solubility; [7]): 1.9 mg/mL
solubility thermodynamic at 24 h (Thermodynamic solubility; [8]): 30.8 mg/mL
solubility thermodynamic at 24 h (Thermodynamic solubility; un-buffered water): 17.9 mg/mL
solids recovered after thermodynamic solubility study (XRPD) (Thermodynamic solubility; un-buffered water): poorly crystalline free base
thermodynamic solubility (in words) (Thermodynamic solubility; un-buffered water): moderately soluble
material recovered after salt disproportionation study (XRPD) [4]: poorly crystalline free base
solid recovered from hydration screen (XRPD) [5, 9]: poorly crystalline besylate salt
solid recovered from hydration screen (XRPD) [5, 10]: poorly crystalline besylate salt
